# Results taken from patent publication US20240415914A1, “Water Dispersible Cannabinoid Compositions” (priority 2021, published 2024).
# Experiment: Stability of cannabinoid and Vitamin E components of Beverage 1 (AB White) stored at 8° C. and 21-25° C., LCMSMS over 570 days
# Type: physicochemical
# Conditions: for Stability in AB White, 8° C. (content by LCMSMS): beverage stored at 8° C.; for Stability in AB White, 21-25° C. (content by LCMSMS): beverage stored at 21-25° C.
# Procedure: The LCMSMS was calibrated for 0-1000 ng/ml cannabinoids with the same resin material used in the preparation of the concentrates. At each time period, 100 ml of beverage was diluted with 10 ml of methanol and injected into the LCMSMS for analysis.
compound,measurement,setting,value
"C=C(C)[C@@H]1CCC(C)=C[C@H]1c1c(O)cc(CCCCC)c(C(=O)O)c1O [CBDA, cannabidiolic acid]","Stability in AB White, 8° C. (content by LCMSMS)",day 0,1.75 µg/mL
same,"Stability in AB White, 8° C. (content by LCMSMS)",day 1,1.72 µg/mL
same,"Stability in AB White, 8° C. (content by LCMSMS)",day 2,1.76 µg/mL
same,"Stability in AB White, 8° C. (content by LCMSMS)",day 3,1.76 µg/mL
same,"Stability in AB White, 8° C. (content by LCMSMS)",day 5,1.71 µg/mL
same,"Stability in AB White, 8° C. (content by LCMSMS)",day 8,1.75 µg/mL
same,"Stability in AB White, 8° C. (content by LCMSMS)",day 9,1.73 µg/mL
same,"Stability in AB White, 8° C. (content by LCMSMS)",day 10,1.76 µg/mL
same,"Stability in AB White, 8° C. (content by LCMSMS)",day 11,1.70 µg/mL
same,"Stability in AB White, 8° C. (content by LCMSMS)",day 12,1.71 µg/mL
same,"Stability in AB White, 8° C. (content by LCMSMS)",day 15,1.74 µg/mL
same,"Stability in AB White, 8° C. (content by LCMSMS)",day 16,1.73 µg/mL
same,"Stability in AB White, 8° C. (content by LCMSMS)",day 17,1.73 µg/mL
same,"Stability in AB White, 8° C. (content by LCMSMS)",day 18,1.76 µg/mL
same,"Stability in AB White, 8° C. (content by LCMSMS)",day 19,1.74 µg/mL
same,"Stability in AB White, 8° C. (content by LCMSMS)",day 22,1.70 µg/mL
same,"Stability in AB White, 8° C. (content by LCMSMS)",day 23,1.76 µg/mL
same,"Stability in AB White, 8° C. (content by LCMSMS)",day 24,1.72 µg/mL
same,"Stability in AB White, 8° C. (content by LCMSMS)",day 25,1.75 µg/mL
same,"Stability in AB White, 8° C. (content by LCMSMS)",day 26,1.75 µg/mL
same,"Stability in AB White, 8° C. (content by LCMSMS)",day 29,1.75 µg/mL
same,"Stability in AB White, 8° C. (content by LCMSMS)",day 30,1.76 µg/mL
same,"Stability in AB White, 8° C. (content by LCMSMS)",day 60,1.70 µg/mL
same,"Stability in AB White, 8° C. (content by LCMSMS)",day 90,1.70 µg/mL
same,"Stability in AB White, 8° C. (content by LCMSMS)",day 120,1.67 µg/mL
same,"Stability in AB White, 8° C. (content by LCMSMS)",day 150,1.71 µg/mL
same,"Stability in AB White, 8° C. (content by LCMSMS)",day 180,1.75 µg/mL
same,"Stability in AB White, 8° C. (content by LCMSMS)",day 210,1.68 µg/mL
same,"Stability in AB White, 8° C. (content by LCMSMS)",day 240,1.70 µg/mL
same,"Stability in AB White, 8° C. (content by LCMSMS)",day 270,1.70 µg/mL
same,"Stability in AB White, 8° C. (content by LCMSMS)",day 300,1.69 µg/mL
same,"Stability in AB White, 8° C. (content by LCMSMS)",day 330,1.70 µg/mL
same,"Stability in AB White, 8° C. (content by LCMSMS)",day 360,1.70 µg/mL
same,"Stability in AB White, 8° C. (content by LCMSMS)",day 390,1.70 µg/mL
same,"Stability in AB White, 8° C. (content by LCMSMS)",day 420,1.67 µg/mL
same,"Stability in AB White, 8° C. (content by LCMSMS)",day 450,1.68 µg/mL
same,"Stability in AB White, 8° C. (content by LCMSMS)",day 480,1.66 µg/mL
same,"Stability in AB White, 8° C. (content by LCMSMS)",day 510,1.61 µg/mL
same,"Stability in AB White, 8° C. (content by LCMSMS)",day 540,1.61 µg/mL
same,"Stability in AB White, 8° C. (content by LCMSMS)",day 570,1.60 µg/mL
same,"Stability in AB White, 21-25° C. (content by LCMSMS)",day 0,1.75 µg/mL
same,"Stability in AB White, 21-25° C. (content by LCMSMS)",day 1,1.76 µg/mL
same,"Stability in AB White, 21-25° C. (content by LCMSMS)",day 2,1.70 µg/mL
same,"Stability in AB White, 21-25° C. (content by LCMSMS)",day 3,1.71 µg/mL
same,"Stability in AB White, 21-25° C. (content by LCMSMS)",day 5,1.69 µg/mL
same,"Stability in AB White, 21-25° C. (content by LCMSMS)",day 8,1.77 µg/mL
same,"Stability in AB White, 21-25° C. (content by LCMSMS)",day 9,1.74 µg/mL
same,"Stability in AB White, 21-25° C. (content by LCMSMS)",day 10,1.73 µg/mL
same,"Stability in AB White, 21-25° C. (content by LCMSMS)",day 11,1.76 µg/mL
same,"Stability in AB White, 21-25° C. (content by LCMSMS)",day 12,1.74 µg/mL
same,"Stability in AB White, 21-25° C. (content by LCMSMS)",day 15,1.69 µg/mL
same,"Stability in AB White, 21-25° C. (content by LCMSMS)",day 16,1.75 µg/mL
same,"Stability in AB White, 21-25° C. (content by LCMSMS)",day 17,1.72 µg/mL
same,"Stability in AB White, 21-25° C. (content by LCMSMS)",day 18,1.75 µg/mL
same,"Stability in AB White, 21-25° C. (content by LCMSMS)",day 19,1.70 µg/mL
same,"Stability in AB White, 21-25° C. (content by LCMSMS)",day 22,1.70 µg/mL
same,"Stability in AB White, 21-25° C. (content by LCMSMS)",day 23,1.73 µg/mL
same,"Stability in AB White, 21-25° C. (content by LCMSMS)",day 24,1.70 µg/mL
same,"Stability in AB White, 21-25° C. (content by LCMSMS)",day 25,1.73 µg/mL
same,"Stability in AB White, 21-25° C. (content by LCMSMS)",day 26,1.75 µg/mL
same,"Stability in AB White, 21-25° C. (content by LCMSMS)",day 29,1.76 µg/mL
same,"Stability in AB White, 21-25° C. (content by LCMSMS)",day 30,1.71 µg/mL
same,"Stability in AB White, 21-25° C. (content by LCMSMS)",day 60,1.68 µg/mL
same,"Stability in AB White, 21-25° C. (content by LCMSMS)",day 90,1.67 µg/mL
same,"Stability in AB White, 21-25° C. (content by LCMSMS)",day 120,1.66 µg/mL
same,"Stability in AB White, 21-25° C. (content by LCMSMS)",day 150,1.64 µg/mL
same,"Stability in AB White, 21-25° C. (content by LCMSMS)",day 180,1.69 µg/mL
same,"Stability in AB White, 21-25° C. (content by LCMSMS)",day 210,1.73 µg/mL
same,"Stability in AB White, 21-25° C. (content by LCMSMS)",day 240,1.73 µg/mL
same,"Stability in AB White, 21-25° C. (content by LCMSMS)",day 270,1.71 µg/mL
same,"Stability in AB White, 21-25° C. (content by LCMSMS)",day 300,1.73 µg/mL
same,"Stability in AB White, 21-25° C. (content by LCMSMS)",day 330,1.72 µg/mL
same,"Stability in AB White, 21-25° C. (content by LCMSMS)",day 360,1.69 µg/mL
same,"Stability in AB White, 21-25° C. (content by LCMSMS)",day 390,1.67 µg/mL
same,"Stability in AB White, 21-25° C. (content by LCMSMS)",day 420,1.64 µg/mL
same,"Stability in AB White, 21-25° C. (content by LCMSMS)",day 450,1.70 µg/mL
same,"Stability in AB White, 21-25° C. (content by LCMSMS)",day 480,1.63 µg/mL
same,"Stability in AB White, 21-25° C. (content by LCMSMS)",day 510,1.66 µg/mL
same,"Stability in AB White, 21-25° C. (content by LCMSMS)",day 540,1.63 µg/mL
same,"Stability in AB White, 21-25° C. (content by LCMSMS)",day 570,1.61 µg/mL
